Data taken from US12570662B2, “Substituted pyrrolo[1,2-b]pyridazines as bifunctional degraders of interleukin-1 receptor-associated kinases” (Nurix Therapeutics, Inc., priority 2021, dated 2026).

Target: T1, IRAK4 (Homo sapiens, UniProt Q9NWZ3)
T1 construct: C-terminal HiBiT-tagged Jurkat cells (polyclonal cell line or clone 8D5); endogenous in cells; host or cells: Jurkat cells (polyclonal cell line or clone 8D5), HiBiT-tagged
T1 sequence (Q9NWZ3 1-460): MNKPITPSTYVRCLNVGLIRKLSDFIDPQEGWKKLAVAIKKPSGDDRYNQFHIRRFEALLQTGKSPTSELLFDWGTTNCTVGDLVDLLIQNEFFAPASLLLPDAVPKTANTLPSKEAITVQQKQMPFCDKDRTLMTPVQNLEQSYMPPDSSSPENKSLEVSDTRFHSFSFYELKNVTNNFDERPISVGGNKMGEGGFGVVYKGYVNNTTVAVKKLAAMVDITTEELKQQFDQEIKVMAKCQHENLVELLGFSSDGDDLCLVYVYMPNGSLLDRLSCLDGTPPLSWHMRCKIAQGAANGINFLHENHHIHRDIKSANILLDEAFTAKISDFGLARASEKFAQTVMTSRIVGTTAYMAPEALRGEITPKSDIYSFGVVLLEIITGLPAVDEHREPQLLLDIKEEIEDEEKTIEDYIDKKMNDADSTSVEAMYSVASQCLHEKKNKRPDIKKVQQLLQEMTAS
Assay: IRAK4 Degradation HiBit Assay
Format: cell-based
Settings: C-terminal HiBiT-tagged Jurkat cells, 4 hrs incubation; for DC50: % IRAK4 remaining, four-parameter fit (IC50 used as DC50); for Dmax: from fit of % IRAK4 remaining, read-out: Dmax
How it was run: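 Jurkat cells carrying C-terminal HiBiT-tagged IRAK4 (polyclonal or clone 8D5) exposed to compound, 10 μM–0.1 nM final over 11 points, for 4 h at 32 °C. Remaining IRAK4 measured by lytic HiBiT/LgBiT luminescence relative to DMSO. DC50 and Dmax taken from four-parameter variable-slope fits.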

Compound | DC50 [nM] | Dmax [%]
N#CCNc1cc(-c2ccc3cc(C#N)cnn23)ncc1-c1nnc(N2CC3CCC(C2)N3CC2CCN(c3ccc([C@H]4CCC(=O)NC4=O)cc3)CC2)s1 (racemic) [Example 105, rac-7-{4-[(cyanomethyl)amino]-5-(5-{8-[(1-{4-[(3R)-2,6-dioxopiperidin-3-yl]phenyl}piperidin-4-yl)methyl]-3,8-diazabicyclo[3.2.1]octan-3-yl}-1,3,4-thiadiazol-2-yl)pyridin-2-yl}pyrrolo[1,2-b]pyridazine-3-carbonitrile] | 6 | 112
N#Cc1cnn2c(-c3cc(NC4CCOCC4)c(-c4nnc(N5CCN(CC6CCN(c7ccc(C8CCC(=O)NC8=O)nc7)CC6)CC5)s4)cn3)ccc2c1 (racemic) [Example 106, rac-7-[5-(5-{4-[(1-{6-[(3R)-2,6-dioxopiperidin-3-yl]pyridin-3-yl}piperidin-4-yl)methyl]piperazin-1-yl}-1,3,4-thiadiazol-2-yl)-4-[(oxan-4-yl)amino]pyridin-2-yl]pyrrolo[1,2-b]pyridazine-3-carbonitrile] | 21 | 99
N#Cc1cnn2c(-c3cc(NC4CCOCC4)c(-c4nnc(N5CCN(C[C@H]6CC[C@H](Oc7ccc([C@@H]8CCC(=O)NC8=O)cn7)CC6)CC5)s4)cn3)ccc2c1 (racemic) [Example 107, 7-{4-[(oxan-4-yl)amino]-5-[5-(4-{[(1r,4r)-4-({5-[(3RS)-2,6-dioxopiperidin-3-yl]pyridin-2-yl}oxy)cyclohexyl]methyl}piperazin-1-yl)-1,3,4-thiadiazol-2-yl]pyridin-2-yl}pyrrolo[1,2-b]pyridazine-3-carbonitrile] | 65 | 111
N#Cc1cnn2c(-c3cc(NC4CCOCC4)c(-c4nnc(N5CC6CCC(C5)N6C[C@H]5CC[C@H](Oc6ccc([C@@H]7CCC(=O)NC7=O)cn6)CC5)s4)cn3)ccc2c1 (racemic) [Example 108, 7-{4-[(oxan-4-yl)amino]-5-[5-(8-{[(1r,4r)-4-({5-[(3RS)-2,6-dioxopiperidin-3-yl]pyridin-2-yl}oxy)cyclohexyl]methyl}-3,8-diazabicyclo[3.2.1]octan-3-yl)-1,3,4-thiadiazol-2-yl]pyridin-2-yl}pyrrolo[1,2-b]pyridazine-3-carbonitrile] | 40 | 87
N#Cc1cnn2c(-c3cc(NC4CCC4)c(-c4nnc(N5CCN(CC6CCN(c7ccc(C8CCC(=O)NC8=O)cn7)CC6)CC5)s4)cn3)ccc2c1 (racemic) [Example 113, rac-7-[4-(cyclobutylamino)-5-(5-{4-[(1-{5-[(3R)-2,6-dioxopiperidin-3-yl]pyridin-2-yl}piperidin-4-yl)methyl]piperazin-1-yl}-1,3,4-thiadiazol-2-yl)pyridin-2-yl]pyrrolo[1,2-b]pyridazine-3-carbonitrile] | 239 | 105
COC[C@@H](C)Nc1cc(-c2ccc3cc(C#N)cnn23)ncc1-c1nnc(N2CC3CCC(C2)N3CC2CCN(c3ccc(C4CCC(=O)NC4=O)cn3)CC2)s1 (mixture of isomers) [Example 114, 7-[5-(5-{8-[(1-{5-[(3RS)-2,6-dioxopiperidin-3-yl]pyridin-2-yl}piperidin-4-yl)methyl]-3,8-diazabicyclo[3.2.1]octan-3-yl}-1,3,4-thiadiazol-2-yl)-4-{[(2R)-1-methoxypropan-2-yl]amino}pyridin-2-yl]pyrrolo[1,2-b]pyridazine-3-carbonitrile] | 100 | 110
N#Cc1cnn2c(-c3cc(NC4CCOCC4)c(-c4nnc(N5CCN(CC6CCN(c7ccc([C@H]8CCC(=O)NC8=O)cn7)CC6)CC5)s4)cn3)ccc2c1 (single isomer, unassigned) [Example 30] | 40 | 104
N#Cc1cnn2c(-c3cc(NC4CCOCC4)c(-c4nnc(N5CCN(CC6CCN(c7ccc([C@@H]8CCC(=O)NC8=O)cn7)CC6)CC5)s4)cn3)ccc2c1 (single isomer, unassigned) [Example 31] | 160 | 53
CNc1cc(-c2ccc3cc(C#N)cnn23)ncc1-c1nnc(N2CCN(CC3CCN(c4ccc([C@H]5CCC(=O)NC5=O)cn4)CC3)CC2)s1 (single isomer, unassigned) [Example 41] | 1050 | 83
CNc1cc(-c2ccc3cc(C#N)cnn23)ncc1-c1nnc(N2CCN(CC3CCN(c4ccc([C@@H]5CCC(=O)NC5=O)cn4)CC3)CC2)s1 (single isomer, unassigned) [Example 42] | 16 | 115
N#Cc1cnn2c(-c3cc(NC4CCOCC4)c(-c4nnc(N5CC6CCC(C5)N6CC5CCN(c6ccc([C@@H]7CCC(=O)NC7=O)cc6)CC5)s4)cn3)ccc2c1 (single isomer, unassigned) [Example 109] | 52 | 94
N#Cc1cnn2c(-c3cc(NC4CCOCC4)c(-c4nnc(N5CC6CCC(C5)N6CC5CCN(c6ccc([C@H]7CCC(=O)NC7=O)cc6)CC5)s4)cn3)ccc2c1 (single isomer, unassigned) [Example 110] | 50 | 50
N#Cc1cnn2c(-c3cc(NC4CCOCC4)c(-c4nnc(N5CC6CCC(C5)N6CC5CCN(c6ccc([C@@H]7CCC(=O)NC7=O)cn6)CC5)s4)cn3)ccc2c1 (single isomer, unassigned) [Example 111] | 32 | 110
N#Cc1cnn2c(-c3cc(NC4CCOCC4)c(-c4nnc(N5CC6CCC(C5)N6CC5CCN(c6ccc([C@H]7CCC(=O)NC7=O)cn6)CC5)s4)cn3)ccc2c1 (single isomer, unassigned) [Example 112] | 33 | 92
N#Cc1cnn2c(-c3cc(NC4CCOCC4)c(-c4nnc(N5CCN(CC6CCN(c7ccc([C@H]8CCC(=O)NC8=O)nc7)CC6)CC5)s4)cn3)ccc2c1 (single isomer, unassigned) [Example 116] | 100 | 111
N#Cc1cnn2c(-c3cc(NC4CCOCC4)c(-c4nnc(N5CCN(CC6CCN(c7ccc([C@@H]8CCC(=O)NC8=O)nc7)CC6)CC5)s4)cn3)ccc2c1 (single isomer, unassigned) [Example 117] | 75 | 106
CC(C)Nc1cc(-c2ccc3cc(C#N)cnn23)ncc1-c1nnc(N2CCN(CC3CCN(c4ccc([C@@H]5CCC(=O)NC5=O)cn4)CC3)CC2)s1 (single isomer, unassigned) [Example 118] | 49 | 110
N#Cc1cnn2c(-c3cc(NC4CC4)c(-c4nnc(N5CCN(CC6CCN(c7ccc([C@@H]8CCC(=O)NC8=O)cn7)CC6)CC5)s4)cn3)ccc2c1 (single isomer, unassigned) [Example 119] | 30 | 111
N#Cc1cnn2c(-c3cc(NC4CC4)c(-c4nnc(N5CCN(CC6CCN(c7ccc([C@@H]8CCC(=O)NC8=O)cc7)CC6)CC5)s4)cn3)ccc2c1 (single isomer, unassigned) [Example 120] | 68 | 109
CC(C)Nc1cc(-c2ccc3cc(C#N)cnn23)ncc1-c1nnc(N2CC3CCC(C2)N3CC2CCN(c3ccc([C@@H]4CCC(=O)NC4=O)cc3)CC2)s1 (single isomer, unassigned) [Example 121] | 73 | 88
CC(C)Nc1cc(-c2ccc3cc(C#N)cnn23)ncc1-c1nnc(N2CC3CCC(C2)N3CC2CCN(c3ccc([C@@H]4CCC(=O)NC4=O)cn3)CC2)s1 (single isomer, unassigned) [Example 122] | 58 | 105
N#Cc1cnn2c(-c3cc(NC4CC4)c(-c4nnc(N5CC6CCC(C5)N6CC5CCN(c6ccc([C@@H]7CCC(=O)NC7=O)cc6)CC5)s4)cn3)ccc2c1 (single isomer, unassigned) [Example 123] | 80 | 96
N#Cc1cnn2c(-c3cc(N[C@@H]4CCOC4)c(-c4nnc(N5CC6CCC(C5)N6CC5CCN(c6ccc([C@@H]7CCC(=O)NC7=O)cn6)CC5)s4)cn3)ccc2c1 (single isomer, unassigned) [Example 124] | 8 | 110
N#Cc1cnn2c(-c3cc(NC4CC4)c(-c4nnc(N5CC6CCC(C5)N6CC5CCN(c6ccc([C@@H]7CCC(=O)NC7=O)cn6)CC5)s4)cn3)ccc2c1 (single isomer, unassigned) [Example 125] | 30 | 106
CCNc1cc(-c2ccc3cc(C#N)cnn23)ncc1-c1nnc(N2CC3CCC(C2)N3CC2CCN(c3ccc([C@@H]4CCC(=O)NC4=O)cc3)CC2)s1 (single isomer, unassigned) [Example 126] | 43 | 108
N#Cc1cnn2c(-c3cc(N[C@@H]4CCOC4)c(-c4nnc(N5CCN(CC6CCN(c7ccc([C@@H]8CCC(=O)NC8=O)cn7)CC6)CC5)s4)cn3)ccc2c1 (single isomer, unassigned) [Example 127] | 9 | 113
N#CCNc1cc(-c2ccc3cc(C#N)cnn23)ncc1-c1nnc(N2CC3CCC(C2)N3CC2CCN(c3ccc([C@@H]4CCC(=O)NC4=O)cc3)CC2)s1 (single isomer, unassigned) [Example 128] | 6 | 111
C[C@H](C#N)Nc1cc(-c2ccc3cc(C#N)cnn23)ncc1-c1nnc(N2CCN(CC3CCN(c4ccc([C@@H]5CCC(=O)NC5=O)cn4)CC3)CC2)s1 (single isomer, unassigned) [Example 129] | 5 | 113
